In brackets after ≈: the same amount, converted by molar mass. Like-named read-outs stand apart in the source and are kept apart here.
How the values were obtained:
[1] = test system: human peripheral blood mononuclear cells; settings: cited from earlier work
[2] = Determination of the water-solubility; format: physicochemical
Method: The purified product was tested for their water solubility as previously described (Wang et al. 2014). Purified 2′-hydroxyflavone glycoside was used to establish standard curves for quantifying water solubility. Briefly, the purified compound and the substrate were each mixed with 300 μL of distilled water in an Eppendorf tube at 25° C. An ultrasonic cleaner was used to facilitate the dissolution. After 30 min of sonication and centrifugation at 13,000×g for 10 min, supernatant of each sample was analyzed by HPLC to determine the compound concentrations in the solution. All samples were performed in triplicate and water solubility of each sample are expressed as the mean±standard deviation (SD).

SMILES: Oc1ccc(C=Cc2cc(O)cc(O)c2)cc1 [resveratrol, reference compound]
- cytotoxicity to human peripheral blood mononuclear cells ([1]; at 30 μM): has cytotoxicity

SMILES: O=C(O)[C@H]1O[C@@H](Oc2ccc(/C=C/c3cc(O)cc(O)c3)cc2)[C@H](O)[C@@H](O)[C@@H]1O [resveratrol-4′-O-β-D-glucuronide, Resveratrol-4′-O-β-D-glucuronide]
- cytotoxicity to human peripheral blood mononuclear cells ([1]; at 300 μM): did not show any cytotoxicity

SMILES: O=c1cc(-c2ccccc2O)oc2ccccc12 [2′-hydroxyflavone, reference compound]
- solubility at 30 min ([2]; thermodynamic from solid, distilled water, 25° C., 30 min sonication, HPLC, n=3, mean±SD): 2.5 ± 0.7 µg/mL (≈ 10.5 µM)

SMILES: O=C(O)[C@H]1O[C@@H](Oc2ccccc2-c2cc(=O)c3ccccc3o2)[C@H](O)[C@@H](O)[C@@H]1O [hydroxyflavone-2′-O-β-D-glucuronide]
- water solubility ([2]; distilled water, 25° C., 30 min sonication, HPLC, n=3, mean±SD): 34.8 ± 0.9 mg/L (≈ 84 µM)
- water solubility relative to the substrate 2′-hydroxyflavone ([2]; ratio glucuronide / substrate): around 14 times
